The values below come from paper PMC6270160, “Bioactive Phenylpropanoid Glycosides from Tabebuia avellanedae” (Molecules, 2013).

One experiment concerns the target T1, cytochrome CYP3A4 enzyme (Homo sapiens, UniProt P08684).
T1 construct: purchased
The experiment can be described thus: Inhibitory activity on cytochrome CYP3A4 enzyme (Vivid substrate, P450 BACULOSOMES, fluorescence). The format is in vitro ADME. Particulars: 20 min pre-incubation, 30 min reaction, fluorescence at 460 nm; read-out: IC50 ± SD, inhibitory activity on CYP3A4 enzyme. The procedure: Measurement of inhibitory activity on cytochrome CYP3A4 enzyme vivid substrate and fluorescent standards were reconstituted and a standard curve was prepared. 40 µL of test samples at different concentrations diluted in 1% DMSO, positive inhibition control and solvent were added to each 96-well plate, then was added 50 µL of Master pre-mix consisting of P450 BACULOSOMES in vivid CYP 450, Reaction Buffer and Regeneration System (consisting of glucose-6-phosphate and glucose-6-phosphate dehydrogenase), and the plate was mixed and incubated for 20 min to allow samples to interact with the CYP3A4 enzyme. The reaction was started by addition of 10 µL reaction starting liquid including vivid substrate, NADP and Reaction Buffer mixture, and the fluorescence was recorded using a LAS-3000 luminescent image analyzer at a wavelength of 460 nm after 30 min duration of reaction. The inhibition rate was calculated using the equation: % inhibition = [1 − relative fluorescence units (rfu) in the presence of the test sample or positive inhibition control/rfu in the absence of the test compound or positive inhibition control] × 100.

Experiment [1] in a line: DPPH free radical scavenging (antioxidant) assay. Particulars: DPPH in MeOH, 30 min at room temperature in the dark, absorbance at 517 nm, triplicate; read-out: IC50 ± SD, scavenging activity on DPPH free radicals. The method, then: Test samples (100 µL) at different concentrations in MeOH and DPPH (200 µL, […]) in MeOH were added to 96-well microtiter plates. The plate was shaken for 1 min by a plate shaker, and incubated for 30 min at room temperature in the dark. After incubation, the absorbance was recorded at 517 nm. The tested samples at different concentrations without DPPH solution were used as blank control to eliminate the influence of the sample color. Ascorbic acid was used as positive control, and DPPH solution in MeOH served as a negative control. All tests were independently performed in triplicate. DPPH radical scavenging activity (%) = [1 − (AbsS − AbsB)/AbsC] × 100%.

SMILES strings stand for the structures.

T1 sequence (P08684 whole entry): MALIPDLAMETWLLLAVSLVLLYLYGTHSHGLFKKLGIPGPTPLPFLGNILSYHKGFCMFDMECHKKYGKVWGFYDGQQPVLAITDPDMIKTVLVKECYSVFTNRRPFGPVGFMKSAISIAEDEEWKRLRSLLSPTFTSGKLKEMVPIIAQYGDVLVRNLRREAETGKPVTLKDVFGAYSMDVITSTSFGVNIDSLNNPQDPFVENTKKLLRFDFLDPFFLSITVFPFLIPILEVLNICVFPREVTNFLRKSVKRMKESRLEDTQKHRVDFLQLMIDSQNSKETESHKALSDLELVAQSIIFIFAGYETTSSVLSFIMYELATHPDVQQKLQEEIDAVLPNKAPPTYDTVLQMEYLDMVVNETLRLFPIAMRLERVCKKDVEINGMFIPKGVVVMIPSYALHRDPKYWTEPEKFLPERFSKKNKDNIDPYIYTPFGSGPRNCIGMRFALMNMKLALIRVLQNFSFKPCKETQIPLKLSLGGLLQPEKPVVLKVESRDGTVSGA

On to `CC1OC(OC2C(O)C(COC(=O)C=Cc3ccc(O)c(O)c3)OC(OCCc3ccc(O)c(O)c3)C2O)C(O)C(O)C1O` (stereo not shown) [Compound 4], for which the IC50 amounted to 91.7 ± 5.44 µM at cytochrome CYP3A4 enzyme and 1.15 ± 0.04 µM in experiment [1].

In the case of `CC1OC(OC2C(O)C(CO)OC(OCCc3ccc(O)c(O)c3)C2O)C(O)C(O)C1OC(=O)C=Cc1ccc(O)c(O)c1` [Compound 6, 1′-O-β-(3,4-dihydroxyphenyl)-ethyl-[4′′-O-caffeoyl-(α-L-fucopyranosyl)]-(l-3′)-D-galactopyranoside], the results for the half-inhibitory concentration (IC50) (at cytochrome CYP3A4 enzyme; in experiment [1]) were 15.1 ± 2.43 µM and 0.24 ± 0.01 µM, respectively.

For the compound `C[C@@H]1O[C@@H](O[C@H]2[C@@H](O)[C@@H](CO)O[C@@H](OCCc3ccc(O)c(O)c3)[C@@H]2O)[C@H](O)[C@H](O)[C@H]1OC(=O)/C=C/c1ccc(O)c(O)c1` [Compound 5, 1'-O-β-(3,4-dihydroxyphenyl)-ethyl-[4′′-O-caffeoyl-(α-L-rhamnopyranosyl)]-(l-3′)-D-galactopyranoside], the IC50 on cytochrome CYP3A4 enzyme amounted to 22.5 ± 1.65 µM; in experiment [1], 0.12 ± 0.03 µM.

Take `CC1OC(OC2C(O)C(OCCc3ccc(O)c(O)c3)OC(CO)C2OC(=O)C=Cc2ccc(O)c(O)c2)C(O)C(O)C1O` [Compound 2, 1′-O-β-(3,4-dihydroxyphenyl)-ethyl-4′-O-caffeoyl-α-L-fucopyranosyl-(l-3′)-D-glucopyranoside]: the IC50 on cytochrome CYP3A4 enzyme is 43.3 ± 1.79 µM; in experiment [1] it was 1 ± 0.02 µM.

`CC1OC(OC2C(O)C(OCCc3ccc(O)c(O)c3)OC(CO)C2OC(=O)C=Cc2ccc(O)c(O)c2)C(O)C(O)C1O` (stereo not shown) [Compound 3]: the half-maximal inhibitory concentration (IC50) at cytochrome CYP3A4 enzyme came to 37.7 ± 2.11 µM; in experiment [1], 0.66 ± 0.04 µM.

In the case of `O=C1O[C@H]([C@@H](O)CO)C(O)=C1O` [Ascorbic acid, reference compound], the 50% inhibitory concentration (IC50) in experiment [1] is 3.08 ± 0.06 µM.

`CC1OC(OC2C(O)C(OCCc3ccc(O)c(O)c3)OC(CO)C2OC(=O)C=Cc2ccc(O)c(O)c2)C(O)C(O)C1O` (stereo not shown) [Compound 1]: the concentration for half-maximal inhibition (IC50) on cytochrome CYP3A4 enzyme worked out at 46.3 ± 1.53 µM; in experiment [1] it was 2.33 ± 0.06 µM.

By IC50 is commonly meant the concentration that gives 50% inhibition.
